Results published in patent US10980768B2, “Composition containing carboplatin and use” (SYN-NAT PRODUCTS ENTERPRISE LLC, priority 2015, dated 2021).
Read-outs that look alike come from different tables or passages of the source.

Columns and labels:
[1] = tested on: A498 cells; assay: Cell viability (MTS) assay in A498 cells, renal adenocarcinoma study; type: cell-based; details: A498 renal carcinoma cells, OD490 cell viability
Excerpt: (§1) Cell culture: A498 and ACHN cells were purchased from Tongbai Bio (Shanghai, China).

[2] = tested on: ACHN cells; assay: Cell viability (MTS) assay in ACHN cells, renal adenocarcinoma study; type: cell-based; details: ACHN renal carcinoma cells, OD490 cell viability
Excerpt: as §1

[3] = tested on: HEK293 cells; assay: Cell viability (MTS) assay in HEK293 cells, renal adenocarcinoma study; type: cell-based, human; details: HEK293 normal embryonic kidney cells
[4] = tested on: HL-7002 cells; assay: Cell viability (MTS) assay in HL-7002 cells, renal adenocarcinoma study
[5] = tested on: HL-60 cells; assay: Cell viability (MTS) assay in HL-60 cells, leukemia study; type: cell-based; details: HL-60 human promyelocytic leukemia cells, OD490 cell viability
[6] = tested on: K562 cells; assay: Cell viability (MTS) assay in K562 cells, leukemia study; type: cell-based, human; details: for toxicity: K562 cells, result in words; for IC50: K562 human myelogenous leukemia cells, OD490 cell viability
[7] = tested on: HEK293 cells; assay: Cell viability (MTS) assay in HEK293 cells, leukemia study; details: for IC50: Homo sapiens, HEK293; for toxicity: HEK293 cells, leukemia study, result in words
[8] = tested on: HL-7002 cells; details: leukemia study; for IC50: HL-7002 human fetal hepatic cells
Experimental: After comparison of OD490 values of the tested agents and the control agents, an index of relative repression rate of cell proliferation was obtained. The IC50 value was calculated by using the SPSS16.0 software.
The cells were cultured in RPMI+5% Fetal Bovine Serum (FBS).
Cells treated with the solvents were used as negative controls, and carboplatin, etiposide and MTX were used as the positive controls. The cells were monitored daily, and the cell viability was evaluated with the Promega CellTiter 96 AQueous One Solution Cell Proliferation Assay (Promega, Madison, Wis., USA) according to the manufacture manuals. The cell viability was monitored at OD490 reading in a bio-spectrometer (Perkin Elmer, Walthan, Mass., USA).
Data analysis: The OD490 reading data were collected hourly from 1 h to 4 h after the addition of lysis buffer. The index of cell growth repression ratio was obtained by comparing the OD490 data of treatment to the negative control. The drug response rate IC50 was calculated with the SPSS 16.0 software.

[9] = tested on: melanoma; assay: Case of a melanoma patient with multiple metastases in the brain and adrenal gland treated with DCP solution; type: in vivo, human
Excerpt: The following case summarizes DCP's pharmaceutical use on a melanoma patient with multiple metastases in the brain and adrenal grand. A metastatic tumor mass firstly was detected at the right frontal and parietal lobe of a patient's brain by MRI, and was removed by surgery in one month later. However, a new tumor mass with edema around it was detected at the left of parietal lobe. The tumor grew bigger, and the edema around the tumor became worse about two months after the new tumor was detected. The patient was treated with DCP solution (150 mg of DCP in 250 mL aqueous solution one time for every three days) for about three weeks.
The left lateral ventricle was compressed. The sign of removed tumors could be distinguished at the right frontal and parietal lobe, and the postoperative repair was found in the right frontal parietal bone. The midline structure shifted to the right side.
After treatment with DCP solution for about three weeks, the patient was examined (FIG. 10). […] The tumors at the right frontal and parietal lobe were removed, and the midline structure was normal.

[10] = HL-7002 normal hepatocytes, renal adenocarcinoma study
[11] = after DCP solution for about three weeks
[12] = melanoma brain metastasis, 150 mg DCP in 250 mL every three days for about three weeks

Row | Molecule | IC50 [5] | toxicity [6] | IC50 [7] | IC50 [6] | toxicity [7] | IC50 [1] | IC50 [2] | IC50 [3] | IC50 [8] | IC50 [4, 10] | further results
1 | O=c1[nH]cc(F)c(=O)[nH]1 [5-FU, fluorouracil] | – | – | – | – | – | – | – | – | – | – | IC50 ([1]; Homo sapiens): 18.2 µM; IC50 ([2]; Homo sapiens): 6.45 µM; IC50 ([3]; Homo sapiens): 45 µM; IC50 ([4]; Homo sapiens, Hepatocyte): 356 µM
2 | CN(Cc1cnc2nc(N)nc(N)c2n1)c1ccc(C(=O)N[C@@H](CCC(=O)O)C(=O)O)cc1 [MTX, Methotrexate] | 15.3 µM | did not show any toxicity | 17.6 µM | – | – | – | – | – | – | – | toxicity ([8]; HL-7002 cells, result in words): little toxicity
3 | N.N.O=C([O-])C1(C(=O)[O-])CCC1.[Pt+2] [carboplatin] | 17.3 µM | – | – | 1210 µM | no toxicity | 18.4 µM | 11 µM | 410 µM | 503 µM | 1410 µM | –
4 | COc1cc([C@@H]2c3cc4c(cc3[C@@H](O[C@@H]3O[C@@H]5CO[C@@H](C)O[C@H]5[C@H](O)[C@H]3O)[C@H]3COC(=O)[C@H]23)OCO4)cc(OC)c1O [etoposide] | 15.3 µM | did not show any toxicity | 359 µM | – | – | – | – | – | 512 µM | – | –
5 | dicycloplatin [DCP] | 18.6 µM | – | – | 812 µM | no toxicity | 20.9 µM | 15.4 µM | 463 µM | 503 µM | 1470 µM | edema around the tumor, post-chemo CT [9, 11]: significantly relieved; tumor mass at the left of parietal lobe, post-chemo CT vs pre-chemo CT [9, 11]: shrunk; edema around the tumor by MRI [9, 12]: relieved; tumor mass by MRI [9, 12]: shrunk; cellular toxicity lower than 5-FU ([4]; HL-7002 and HEK293 normal cells, compared to 5-FU): 4 fold
